Data reported in US12540128B2, “Substituted pyridazinones as herbicides” (SYNGENTA CROP PROTECTION AG, priority 2019, dated 2026).

Legend:
Type in all cases: in vivo
Conditions in all cases: 250 g/ha, after 13 days
[1] = test system: Echinochloa crus-galli (ECHCG); assay: B4 Pre-Emergence Efficacy Test 2
Description: (§1) Seeds of a variety of test species were sown in standard soil in pots: Amaranthus retoflexus (AMARE), Setaria faberi (SETFA), Echinochloa crus-galli (ECHCG), Ipomoea hederacea (IPOHE), Zea Mays (ZEAMX), Abutilon theophrasti (ABUTH). After cultivation for one day (pre-emergence) under controlled conditions in a glasshouse (at 24/16° C., day/night; 14 hours light; 65% humidity), the plants were sprayed with an aqueous spray solution derived from the formulation of the technical active ingredient in acetone/water (50:50) solution containing 0.5% Tween 20 (polyoxyethelyene sorbitan monolaurate, CAS RN 9005-64-5). Compounds are applied at 250 g/ha. The test plants were then grown in a glasshouse under controlled conditions (at 24/16° C., day/night; 14 hours light; 65% humidity) and watered twice daily. After 13 days, the test is evaluated for the percentage damage caused to the plant. The biological activities are assessed on a five point scale (5=80-100%; 4=60-79%; 3=40-59%; 2=20-39%; 1=0-19%). A blank value in the table is indicative that the compound was not tested on that species.

Zea Mays (ZEAMX) [2] = assay: B4 Pre-Emergence Efficacy Test 2
Description: as §1

[3] = test system: Abutilon theophrasti (ABUTH); assay: B4 Pre-Emergence Efficacy Test 2
Description: as §1

[4] = test system: Ipomoea hederacea (IPOHE); assay: B4 Pre-Emergence Efficacy Test 2
Description: as §1

Setaria faberi (SETFA) [5] = assay: B4 Pre-Emergence Efficacy Test 2
Description: as §1

[6] = test system: Amaranthus retoflexus (AMARE); assay: B4 Pre-Emergence Efficacy Test 2
Description: as §1

[7] = test system: Echinochloa crus-galli (ECHCG); assay: B2 Post-Emergence Efficacy Test 2
Description: (§2) Seeds of a variety of test species are sown in standard soil in pots:— Amaranthus retoflexus (AMARE), Setaria faberi (SETFA), Echinochloa crus-galli (ECHCG), Ipomoea hederacea (IPOHE), Zea Mays (ZEAMX), Abutilon theophrasti (ABUTH). After 8 days cultivation (post-emergence) under controlled conditions in a glasshouse (at 24/16° C., day/night; 14 hours light; 65% humidity), the plants are sprayed with an aqueous spray solution derived from the formulation of the technical active ingredient in acetone/water (50:50) solution containing 0.5% Tween 20 (polyoxyethylene sorbitan monolaurate, CAS RN 9005-64-5). Compounds are applied at 250 g/ha. The test plants are then grown in a glasshouse under controlled conditions in a glasshouse (at 24/16° C., day/night; 14 hours light; 65% humidity) and watered twice daily. After 13 days, the test is evaluated for the percentage damage caused to the plant. The biological activities are assessed on a five point scale (5=80-100%; 4=60-79%; 3=40-59%; 2=20-39%; 1=0-19%). A blank value in the table is indicative that the compound was not tested on that species.

Zea Mays (ZEAMX) [8] = assay: B2 Post-Emergence Efficacy Test 2
Description: as §2

[9] = test system: Abutilon theophrasti (ABUTH); assay: B2 Post-Emergence Efficacy Test 2
Description: as §2

[10] = test system: Ipomoea hederacea (IPOHE); assay: B2 Post-Emergence Efficacy Test 2
Description: as §2

Setaria faberi (SETFA) [11] = assay: B2 Post-Emergence Efficacy Test 2
Description: as §2

[12] = test system: Amaranthus retoflexus (AMARE); assay: B2 Post-Emergence Efficacy Test 2
Description: as §2

Row | Structure (SMILES) | percentage damage caused to the plant, five point scale, ECHCG [1] | percentage damage caused to the plant, five point scale, ZEAMX (Zea Mays (ZEAMX) [2]) | percentage damage caused to the plant, five point scale, ABUTH [3] | percentage damage caused to the plant, five point scale, IPOHE [4] | percentage damage caused to the plant, five point scale, SETFA (Setaria faberi (SETFA) [5]) | percentage damage caused to the plant, five point scale, AMARE [6] | percentage damage caused to the plant, five point scale, ECHCG [7] | percentage damage caused to the plant, five point scale, ZEAMX (Zea Mays (ZEAMX) [8]) | percentage damage caused to the plant, five point scale, ABUTH [9] | percentage damage caused to the plant, five point scale, IPOHE [10] | percentage damage caused to the plant, five point scale, SETFA (Setaria faberi (SETFA) [11]) | percentage damage caused to the plant, five point scale, AMARE [12]
1 | Cc1nn(C)c(=O)c(-c2c(F)ccc(Cl)c2CCc2ccc3scnc3c2)c1O [Compound 1.350, 4-[2-[2-(1,3-benzothiazol-5-yl)ethyl]-3-chloro-6-fluoro-phenyl]-5-hydroxy-2,6-dimethyl-pyridazin-3-one] | 5 (5=80-100%) | 4 (4=60-79%) | 5 (5=80-100%) | 5 (5=80-100%) | 5 (5=80-100%) | 5 (5=80-100%) | 4 (4=60-79%) | 3 (3=40-59%) | 5 (5=80-100%) | 3 (3=40-59%) | 4 (4=60-79%) | 4 (4=60-79%)
2 | Cc1nn(C)c(=O)c(-c2c(F)ccc(Cl)c2CCc2ccc3c(cnn3C)c2)c1O [Compound 1.354] | 5 (5=80-100%) | 4 (4=60-79%) | 4 (4=60-79%) | 5 (5=80-100%) | 5 (5=80-100%) | 4 (4=60-79%) | 5 (5=80-100%) | 4 (4=60-79%) | 4 (4=60-79%) | 4 (4=60-79%) | 4 (4=60-79%) | 4 (4=60-79%)
3 | Cc1nn(C)c(=O)c(-c2c(F)ccc(Cl)c2CCc2ccc3sccc3c2)c1O [Compound 1.348] | 4 (4=60-79%) | 1 (1=0-19%) | 3 (3=40-59%) | 5 (5=80-100%) | 3 (3=40-59%) | 5 (5=80-100%) | 4 (4=60-79%) | 4 (4=60-79%) | 3 (3=40-59%) | 4 (4=60-79%) | 4 (4=60-79%) | 4 (4=60-79%)
4 | Cc1nn(C)c(=O)c(-c2c(F)ccc(Cl)c2CCc2ccc3c(ccn3C)c2)c1O [Compound 1.356] | 1 (1=0-19%) | 0 | 1 (1=0-19%) | 2 (2=20-39%) | 1 (1=0-19%) | 3 (3=40-59%) | 4 (4=60-79%) | 2 (2=20-39%) | 4 (4=60-79%) | 4 (4=60-79%) | 5 (5=80-100%) | 5 (5=80-100%)
5 | Cc1nn(C)c(=O)c(-c2c(F)ccc(Cl)c2CCc2ccc3ncsc3c2)c1O [Compound 1.349] | 5 (5=80-100%) | 4 (4=60-79%) | 4 (4=60-79%) | 5 (5=80-100%) | 5 (5=80-100%) | 5 (5=80-100%) | 4 (4=60-79%) | 2 (2=20-39%) | 4 (4=60-79%) | 4 (4=60-79%) | 4 (4=60-79%) | 4 (4=60-79%)
6 | Cc1nn(C)c(=O)c(-c2c(F)ccc(Cl)c2CCc2ccc3ccccc3c2)c1O [Compound 1.053] | 2 (2=20-39%) | 1 (1=0-19%) | 2 (2=20-39%) | 1 (1=0-19%) | 2 (2=20-39%) | 4 (4=60-79%) | 3 (3=40-59%) | 4 (4=60-79%) | 3 (3=40-59%) | 4 (4=60-79%) | 4 (4=60-79%) | 4 (4=60-79%)
7 | Cc1nn(C)c(=O)c(-c2c(F)ccc(Cl)c2CCc2ccc3cnn(C)c3c2)c1O [Compound 1.353] | 5 (5=80-100%) | 4 (4=60-79%) | 4 (4=60-79%) | 5 (5=80-100%) | 5 (5=80-100%) | 5 (5=80-100%) | 4 (4=60-79%) | 3 (3=40-59%) | 4 (4=60-79%) | 3 (3=40-59%) | 4 (4=60-79%) | 4 (4=60-79%)
8 | Cc1nn(C)c(=O)c(-c2c(F)ccc(Cl)c2CCc2ccc3ccsc3c2)c1O [Compound 1.347] | 2 (2=20-39%) | 3 (3=40-59%) | 5 (5=80-100%) | 5 (5=80-100%) | 3 (3=40-59%) | 5 (5=80-100%) | 4 (4=60-79%) | 4 (4=60-79%) | 4 (4=60-79%) | 4 (4=60-79%) | 4 (4=60-79%) | 4 (4=60-79%)
9 | Cc1nn(C)c(=O)c(-c2c(F)ccc(Cl)c2CCc2ccc3c(c2)OC(C)(C)O3)c1O [Compound 1.361, [3-chloro-2-[2-(2,2-dimethyl-1,3-benzodioxol-5-yl)ethyl]-6-fluoro-phenyl]-5-hydroxy-2,6-dimethyl-pyridazin-3-one] | 3 (3=40-59%) | 1 (1=0-19%) | 5 (5=80-100%) | 4 (4=60-79%) | 5 (5=80-100%) | 4 (4=60-79%) | 4 (4=60-79%) | 4 (4=60-79%) | 5 (5=80-100%) | 5 (5=80-100%) | 5 (5=80-100%) | 3 (3=40-59%)
